Experimental data as given in US7560227B2, “Biomarkers of vulnerable atherosclerotic plaques and methods of use” (University of Massachusetts, priority 2005, dated 2009).
Where a SMILES comes first, the peptide text is derived from it. Bridges are numbered along the chain shown (N, C = ends). Where no end group is shown, it is not given here.

Key:
LS-174T tumor cubes = test: Binding of 99mTc-labeled phage to LS-174T solid tumor cubes; settings: ~1 mm tumor cubes incubated with serial dilutions of 99mTc-labeled phage
Protocol: Since TAG-72 expression is known to be higher in solid tumors than cells from culture, LS-174T cells were grown in nude mice, the resulting tumors removed and cut into ˜1 mm cubes for an assay using solid tumors. In addition to the labeled phage, the ^99mTc-labeled antibody was used to evaluate the level of antigen expression in tumor. For assay the tumor cubes were incubated with serial dilutions of ^99mTc-labeled phage or the ^99mTc-B72.3 antibody.

TAG-72 = test: Competition of unlabeled phage with 99mTc-labeled B72.3 antibody on LS-174T tumor cubes; type: binding; settings: 1 ng 99mTc-labeled B72.3 antibody, serial dilutions of unlabeled phage
Protocol: To test if phage A3-10 could compete with the B72.3, the LS-174T tumor cubes were incubated with 1 ng of ^99mTc-labeled B72.3 antibody and serial dilutions of unlabeled A3-10 phage. […] Thus, the phage is likely blocking the antibody, an indication of binding to the same target.

[1] = system: LS-174T colon cancer cells; test: Binding of 99mTc-labeled phage to LS-174T colon cancer cells in vitro; type: cell-based; settings: for Binding compared to the control phage (A3-12): 6×10^5 cells per 50 μl, ~1.5×10^11 virions 99mTc-labeled phage; for Relative Binding: Table 6, relative to control phage A3-12
Protocol: For in vitro studies, LS-174T colon cancer cells, known to express the TAG-72 protein were incubated at a fixed ratio of cells (6×10^5 per 50 μl) to ^99mTc-labeled phage, ˜1.5×10^11 virions.

myeloperoxidase [2] = target: T1, myeloperoxidase (Homo sapiens, UniProt P05164); test: Binding of 99mTc-labeled phage clones to 125I-myeloperoxidase, separated on spin column / Sepharose 6B column; settings: for Relative Binding (% bound): 99mTc-phage (10^10 pfu) with 125I-myeloperoxidase (750 ng), 15-30 minutes at 4 degrees Celsius, after subtraction of binding by control phage MPO-4; for Binding to 125I-myeloperoxidase compared with control clone MPO-4 (in words): shift of 125I to higher molecular weight fractions associated with 99mTc-phage
Protocol: (§1) FIG. 6 is a graphical representation of the results of studies of the binding of several phage clones to ^125-myeloperoxidase where the relative magnitude of binding was MPO-17>MPO-6>MPO-15 >MPO-1 >control (MPO-4). The consensus phage clones were radiolabeled with ^99mTc, using mercaptoacetyltriglycine (MAG3) as chelator, and the myeloperoxidase was iodinated using iodogen. The ^99mTc-phage were incubated with the ^125I-myeloperoxidase for 15-30 minutes, and then separated on a Sepharose 6B column. The shift of ^125I to the higher molecular weight fractions associated with ^99mTc-phage indicated binding.
After three rounds of selection, twenty phage clones were sequenced and four peptides occurring in more than one clone were identified. The phage clones representing the four sequences occurring in more than one clone plus a clone having a sequence that occurred in no other selected clone were amplified, titered and conjugated with NHS-MAG3 for radiolabeling with ^99mTc. See Winnard, P. Jr, et al., Preparation and use of NHS-MAG3 for technetium-99m labeling of DNA, Nucl. Med. Biol. 1997 July; 24(5):425-32. Myeloperoxidase was radiolabeled with ^125I via iodogen and a fixed amount (750 ng) was incubated with a constant number of phage plaque forming units (10^10) of each of the four consensus clones, plus a non-consensus clone as control, each radiolabeled with ^99mTc. Myeloperoxidase was added at what was estimated to be a 10-fold molar excess over peptide. After incubating for 15-30 minutes at 4 degrees Celsius, the binding of myeloperoxidase to each phage clone was determined by separating phage from myeloperoxidase using both a MicroSpin S-200 HR spin column and a Sepharose 6B open mini-column. The ^99mTc counts were used to identify the phage-containing fractions while the 125I counts in those fractions identified the concentration of bound myeloperoxidase. The peptide sequences of the 16 mer cysteine-constrained peptides in the display domain of the PVIII coat protein and the relative binding of four clones (MPO-1, MPO-6, MPO-15 and MPO-17) are listed in Table 2, below.
as §1, with “FIG. 8” for “FIG. 6”, “several bacteriophage” for “several phage”, “to ^125I-myeloperoxidase” for “to ^125-myeloperoxidase”, “was MPO-17>MPO-6>MPO-15>MPO-1>control” for “was MPO-17>MPO-6>MPO-15 >MPO-1 >control”, “using MAG3” for “using mercaptoacetyltriglycine (MAG3)”

myeloperoxidase [3] = target: T2, myeloperoxidase (Homo sapiens, UniProt P05164); test: Histological staining of bone marrow tissue slides with biotinylated peptides; settings: biotinylated peptide, anti-biotin antibody, ABC alkaline phosphatase kit, hematoxylin counterstain
T2 construct: Slides of bone marrow tissue were used since they are known to contain myeloperoxidase; from tissue; host or cells: bone marrow tissue slides
T2 sequence (P05164 49-745): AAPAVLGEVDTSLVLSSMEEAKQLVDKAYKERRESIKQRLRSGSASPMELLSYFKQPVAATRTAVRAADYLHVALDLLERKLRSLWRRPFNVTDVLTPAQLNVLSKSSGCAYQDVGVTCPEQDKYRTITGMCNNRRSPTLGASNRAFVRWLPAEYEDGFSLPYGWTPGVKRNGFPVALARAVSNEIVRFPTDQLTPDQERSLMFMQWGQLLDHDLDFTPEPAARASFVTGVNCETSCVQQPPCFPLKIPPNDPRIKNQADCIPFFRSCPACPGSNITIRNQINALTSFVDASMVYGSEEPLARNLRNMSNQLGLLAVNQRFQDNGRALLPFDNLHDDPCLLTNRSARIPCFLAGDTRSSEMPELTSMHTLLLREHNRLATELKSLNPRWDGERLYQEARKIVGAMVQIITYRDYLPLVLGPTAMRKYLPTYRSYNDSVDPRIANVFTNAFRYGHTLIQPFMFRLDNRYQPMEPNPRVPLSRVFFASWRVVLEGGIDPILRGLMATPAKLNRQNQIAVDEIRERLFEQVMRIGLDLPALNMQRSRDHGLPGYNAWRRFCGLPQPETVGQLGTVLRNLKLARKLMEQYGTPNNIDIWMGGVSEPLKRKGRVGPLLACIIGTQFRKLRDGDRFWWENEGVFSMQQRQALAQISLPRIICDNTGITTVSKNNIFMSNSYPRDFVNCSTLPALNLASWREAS
Protocol: FIGS. 9A-9D show the results of histological studies. Slides of bone marrow tissue were used since they are known to contain myeloperoxidase. Treatments were as follows: Figure 9A, anti-myeloperoxidase antibody followed with biotinylated secondary antibody; FIG. 9B, biotinylated twenty-three mer MPO-17 peptide; FIG. 9C, biotinylated twenty-three mer control peptide; FIG. 9D, incubated with both the biotinylated twenty-three mer MPO-17 peptide and the biotinylated twenty-three mer control peptide, without primary antibody. Each slide was treated with an anti-biotin antibody and the ABC alkaline phosphatase kit (Vector labs) and counterstained with hematoxylin.
The binding of identified peptides to components of plaques was confirmed histologically as follows. Peptide sequences found in multiple selected clones were used to produce peptides using synthetic techniques. Peptides may also be produced using recombinant DNA techniques. The peptides are conjugated with a detectable label, such as biotin using known protocols. The biotin-labeled peptides are used to confirm the binding specificity determined in Example 1 and Example 2 by immunohistochemical analyses of tissue such as vulnerable plaques or tissues rich in components vulnerable plaques that have been exposed to biotin-labeled peptides.
FIGS. 9A-9D show the results of such histological studies. […]

myeloperoxidase [4] = target: T1, myeloperoxidase; test: SE-HPLC (Superose-12) evaluation of twenty-three mer peptide binding to myeloperoxidase; settings: for Shift to a retention time associated with myeloperoxidase: SE-HPLC, Superose-12 column, over incubation time
Protocol: (§2) FIGS. 7A and 7B are graphical representations of the results an evaluation of twenty- three mer peptide binding by SE-HPLC using a Superose-12 column. […] For example, the UV peak for the enzyme increased from 16% of total protein at 5 mm of incubation to 46% of total protein after 2 h incubation.
as §2, with “results of” for “results”, “of MPO-17 twenty-three” for “of twenty- three”, “mer polypeptide” for “mer peptide”, “5 min” for “5 mm”, “2 hours” for “2 h”

Molecule: NPGTCKDKWIECLLNG [A3-10]
- Phage bound with phage added (LS-174T tumor cubes): linear increase in phage bound with phage added
- Activity associated with the binding of 99mTc-B72.3 antibody (TAG-72): decreased with an increase in unlabeled phage added
- Binding compared to the control phage (A3-12) [1]: 4,3 fold
- Relative Binding [1]: 4.3

Molecule: NLIWCRKEFARCTSDM [A3-19]
- Binding compared to the control phage (A3-12) [1]: about 1.5 fold
- Relative Binding [1]: 1.5

Molecule: AMPVCSLDRKACTAYQ [MPO-1]
- Relative Binding (% bound) (myeloperoxidase [2]): 3.9%
- Binding to 125I-myeloperoxidase compared with control clone MPO-4 (in words) (myeloperoxidase [2]): binding above the binding of the control clone MPO-4

Molecule: TVMLCNPMEQGCRWMC (displayed on f88-4 phage pVIII; Chemically synthesized, clone MPO-15) [f88-4/Cys6 phage clone displaying this 16 mer cysteine-constrained peptide in the pVIII coat protein]
- Relative Binding (% bound) (myeloperoxidase [2]): 4.5%
- Relative Binding (% bound) (myeloperoxidase [2]; listed as MPO-5): 4.5%
- Binding to 125I-myeloperoxidase compared with control clone MPO-4 (in words) (myeloperoxidase [2]): binding above the binding of the control clone MPO-4

Molecule: LKNYCRKCSNRCTPTG [A3-21]
- Relative Binding [1]: 1

Molecule: HVLGCSYATNSCAHNA (displayed on f88-4 phage pVIII; Chemically synthesized, clone MPO-5) [MPO-6, f88-4/Cys6 phage clone displaying this 16 mer cysteine-constrained peptide in the pVIII coat protein]
- Relative Binding (% bound) (myeloperoxidase [2]): 5.8%
- Binding to 125I-myeloperoxidase compared with control clone MPO-4 (in words) (myeloperoxidase [2]): binding above the binding of the control clone MPO-4

Molecule: QMKQCWVNTATCWGLSGGSGGGC (cysteine pairing not given here; also: biotinylated) [biotinylated for histology]
- Staining pattern (myeloperoxidase [3]; listed as control peptide): Only the bkie hematoxylin stain is observed
- Shift to a retention time associated with myeloperoxidase (myeloperoxidase [4]): no shift

Molecule: CC(C)C[C@H](NC(=O)[C@@H]1CSSC[C@H](NC(=O)[C@H](CCC(N)=O)NC(=O)CNC(=O)[C@H](CO)NC(=O)[C@@H](N)CCCNC(=N)N)C(=O)N[C@@H](Cc2c[nH]cn2)C(=O)N[C@@H](CC(=O)O)C(=O)N[C@@H](CC(=O)O)C(=O)N[C@@H]([C@@H](C)O)C(=O)N[C@@H](Cc2c[nH]c3ccccc23)C(=O)N[C@@H](CC(N)=O)C(=O)N1)C(=O)N[C@@H](C)C(=O)N[C@@H](CS)C(=O)N[C@H](C(=O)NCC(=O)NCC(=O)N[C@@H](CO)C(=O)NCC(=O)NCC(=O)NCC(=O)N[C@@H](CS)C(=O)O)C(C)C [MPO-17 twenty-three mer peptide] (H-RSGQCHDDTWNCLACVGGSGGGC-OH; disulfide 5-12 (inferred); N-terminus and C-terminus assumed)
- Staining pattern (myeloperoxidase [3]): staining pattern similar to that seen with the anti-myeloperoxidase antibody
- Shift to a retention time associated with myeloperoxidase (myeloperoxidase [4]): gradual shift
- UV peak for the enzyme (myeloperoxidase [4]; after 2 hours incubation of peptide with myeloperoxidase): 46 % of total protein
- UV peak for the enzyme (myeloperoxidase [4]; at 5 min of incubation of peptide with myeloperoxidase): 16 % of total protein

Molecule: RSGQCHDDTWNCLACV (displayed on f88-4 phage pVIII; Chemically synthesized, clone MPO-17) [f88-4/Cys6 phage clone displaying this 16 mer cysteine-constrained peptide in the pVIII coat protein]
- Relative Binding (% bound) (myeloperoxidase [2]): 8%
- Binding to 125I-myeloperoxidase compared with control clone MPO-4 (in words) (myeloperoxidase [2]): highest binding

Molecule: MNYYCHQTTKTCRTHS [A3-12]
- Phage bound with phage added (LS-174T tumor cubes): no change in phage bound except at the highest concentration
- Relative Binding [1]: 1
